Key:
[1] = test system: Mus musculus; assay: Lessening of memory impairment measured in mice; time of latency in seconds at an intravenous dose of 10 mg/kg.; type: functional
[2] = test system: Rattus norvegicus; assay: Anticonflict activity measured in male wistar rats; number of shocks received in 5 min at an intravenous dose of 10 mg/kg.; type: functional
[3] = test system: Mus musculus; assay: […] activity after oral administration of a dose of 5 mg/kg in mice; Number of mice which prolonged latency more than twice the duration of mice administered Scopolamine singly/number of mice tested 1/10; type: functional
[4] = test system: Rattus norvegicus; assay: Anticonflict activity was measured in male wistar rats; number of shocks received in 5 min at a dose of 3 mg/kg ip; type: functional; details: route intraperitoneal
[5] = test system: Rattus norvegicus; assay: No. rats showing anticonflict activity after oral administration of a dose of 10 mg/kg; Number of rats which received shocks more than twice vs shocks received in control rats to that of number of rats tested 25/43; type: functional
[6] = test system: Rattus norvegicus; assay: No of shocks of 5 min was reported after oral administration of a dose of 5 mg/kg in 43 rats; 25/43; type: functional
[7] = biological target: GABA-A receptor; anion channel; assay: Inhibition of [3H]flunitrazepam binding to GABA-A Benzodiazepine receptor of Wistar rat cerebral cortex; type: tissue-based
[8] = test system: Mus musculus; assay: Latency step was determined after oral administration of a dose of 20 mg/kg in 8 mice; type: functional
[9] = test system: Mus musculus; assay: Latency step was determined after oral administration of a dose of 5 mg/kg in 8 mice; type: functional
[10] = test system: Mus musculus; assay: […] activity after oral administration of a dose of 40 mg/kg; Number of mice which prolonged latency more than twice the duration of mice administered Scopolamine singly/number of mice tested 6/8; type: functional
[11] = test system: Mus musculus; assay: Latency step was determined after oral administration of a dose of 40 mg/kg in 8 mice; type: functional
[12] = test system: Mus musculus; assay: No. rats showing anticonflict activity after oral administration of a dose of 20 mg/kg; Number of mice which prolonged latency more than twice the duration of mice administered Scopolamine singly/number of mice tested 4/8; type: functional
[13] = test system: Mus musculus; assay: Number of mice showing anti-amnesic activity after oral administration of a dose of 5 mg/kg; Number of mice which prolonged latency more than twice the duration of mice administered Scopolamine singly/number of mice tested 2/8; type: functional
[14] = test system: Rattus norvegicus; assay: No. rats showing anticonflict activity after oral administration of a dose of 20 mg/kg; Number of rats which received shocks more than twice vs shocks received in control rats to that of number of rats tested 6/10; type: functional
[15] = test system: Rattus norvegicus; assay: No. rats showing anticonflict activity after oral administration of a dose of 40 mg/kg; Number of rats which received shocks more than twice vs shocks received in control rats to that of number of rats tested 8/10; type: functional
[16] = test system: Rattus norvegicus; assay: No. rats showing anticonflict activity after oral administration of a dose of 5 mg/kg; Number of rats which received shocks more than twice vs shocks received in control rats to that of number of rats tested 3/10; type: functional
[17] = test system: Rattus norvegicus; assay: No of shocks of 5 min was reported after oral administration of a dose of 20 mg/kg in 10 rats; type: functional
[18] = test system: Rattus norvegicus; assay: No of shocks of 5 min was reported after oral administration of a dose of 40 mg/kg in 9 rats; type: functional
[19] = test system: Rattus norvegicus; assay: No of shocks of 5 min was reported after oral administration of a dose of 5 mg/kg in 10 rats; type: functional
[20] = biological target: T1, 5-hydroxytryptamine receptor 1A (Rattus norvegicus, UniProt P19327); assay: Binding affinity towards 5-hydroxytryptamine 1A receptor in rat brain; type: tissue-based
T1 sequence (P19327 whole entry): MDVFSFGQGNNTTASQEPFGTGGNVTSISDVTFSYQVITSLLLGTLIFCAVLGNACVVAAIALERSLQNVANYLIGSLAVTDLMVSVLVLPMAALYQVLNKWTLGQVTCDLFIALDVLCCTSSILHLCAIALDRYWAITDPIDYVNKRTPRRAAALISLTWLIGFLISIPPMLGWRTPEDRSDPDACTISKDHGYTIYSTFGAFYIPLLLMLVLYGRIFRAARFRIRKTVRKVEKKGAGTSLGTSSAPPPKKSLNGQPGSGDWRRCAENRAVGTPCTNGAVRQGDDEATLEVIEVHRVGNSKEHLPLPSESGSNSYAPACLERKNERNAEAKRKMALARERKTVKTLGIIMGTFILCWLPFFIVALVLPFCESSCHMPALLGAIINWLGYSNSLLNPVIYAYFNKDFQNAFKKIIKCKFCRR

[21] = test system: Mus musculus; assay: […] activity after oral administration of a dose of 5 mg/kg; Number of mice which prolonged latency more than twice the duration of mice administered Scopolamine singly/number of mice tested 1/8; type: functional
[22] = test system: Mus musculus; assay: No. rats showing anticonflict activity after oral administration of a dose of 20 mg/kg; Number of mice which prolonged latency more than twice the duration of mice administered Scopolamine singly/number of mice tested 3/8; type: functional
[23] = test system: Rattus norvegicus; assay: No. rats showing anticonflict activity after oral administration of a dose of 20 mg/kg; Number of rats which received shocks more than twice vs shocks received in control rats to that of number of rats tested 5/10; type: functional
[24] = test system: Rattus norvegicus; assay: No. rats showing anticonflict activity after oral administration of a dose of 40 mg/kg; Number of rats which received shocks more than twice vs shocks received in control rats to that of number of rats tested 6/9; type: functional
[25] = organism: Mus musculus; assay: Lessening of memory impairment by the compound was measured in mice.; type: functional
[26] = test system: Mus musculus; assay: Latency step was determined after oral administration of a dose of 20 mg/kg in 8 mice.; type: functional
[27] = test system: Mus musculus; assay: Latency step was determined after oral administration of a dose of 40 mg/kg in 8 mice.; type: functional
[28] = test system: Mus musculus; assay: No. of mice showing anti-amnesic activity after oral administration of a dose of 20 mg/kg; Number of mice which prolonged latency more than twice the duration of mice administered Scopolamine singly/number of mice tested 4/8; type: functional
[29] = test system: Mus musculus; assay: No. of mice showing anti-amnesic activity after oral administration of a dose of 40 mg/kg; Number of mice which prolonged latency more than twice the duration of mice administered Scopolamine singly/number of mice tested 6/8; type: functional
[30] = test system: Mus musculus; assay: No. of mice showing anti-amnesic activity after oral administration of a dose of 5 mg/kg; Number of mice which prolonged latency more than twice the duration of mice administered Scopolamine singly/number of mice tested 4/8; type: functional
[31] = test system: Rattus norvegicus; assay: No. rats showing anticonflict activity after oral administration of a dose of 20 mg/kg; Number of rats which received shocks more than twice vs shocks received in control rats to that of number of rats tested 2/8; type: functional
[32] = test system: Rattus norvegicus; assay: No. rats showing anticonflict activity after oral administration of a dose of 40 mg/kg; Number of rats which received shocks more than twice vs shocks received in control rats to that of number of rats tested 4/7; type: functional
[33] = test system: Rattus norvegicus; assay: No of shocks of 5 min was reported after oral administration of a dose of 20 mg/kg; type: functional
[34] = test system: Rattus norvegicus; assay: No of shocks of 5 min was reported after oral administration of a dose of 40 mg/kg; type: functional

O=C(O)c1cc2c(cn1)sc1ccccc12 showed an Activity [1] of 55.8 and an Activity [2] of 4.

CC(=O)N1CCCN(C(=O)c2cc3c(cn2)sc2ccccc23)CC1.Cl showed an Activity [1] of 55 and an Activity [2] of 22.2.

With COC(=O)c1cc2c(cn1)sc1ccccc12 the Activity [1] was 31.6 and the Activity [2] was 8.5.

Work on CN1C(=O)CN=C(c2ccccc2)c2cc(Cl)ccc21 [DIAZEPAM] yielded an Antiamnesic activity [3] of 1, an Activity [4] of 39.4 and an Anticonflict activity [5] of 25. The No. of shocks [6] was 22.7.

Compound CNC(=O)c1cc2c(cn1)sc1ccccc12 has an Activity [1] of 28.6 and an Activity [2] of 8.4.

Compound CN1CCCN(C(=O)c2cc3c(cn2)sc2ccccc23)CC1.Cl has an Activity [1] of 40.3 and an Activity [2] of 3.5.

Compound CCOC(=O)C1Cc2c(sc3ccccc23)CN1C (centres undefined) has an Activity [1] of 32.9 and an Activity [2] of 22.

Cl.O=C(c1cc2c(cn1)sc1ccccc12)N1CCCN(Cc2ccc(Cl)cc2)CC1 gave an Activity [1] of 34.7 and an Activity [2] of 12.8.

Work on Cl.NCC(=O)N1CCCN(C(=O)c2cc3c(cn2)sc2ccccc23)CC1 yielded an Activity [2] of 14.1.

CCOC(=O)C1Cc2c(sc3ccccc23)CN1 (centres undefined) gave an IC50 [7] of 1500 µM, an Activity [8] of 110.1 and an Activity [9] of 68.8. It also gave an Activity [1] of 90.5, an Antiamnesic activity [10] of 6 and an Activity [11] of 129.9. For the same compound, the Antiamnesic activity [12] was 4, the Antiamnesic activity [13] was 2 and the Activity [2] was 27.2. The Anticonflict activity [14] was 6, the Anticonflict activity [15] was 8 and the Anticonflict activity [16] was 3. It also gave a No. of shocks [17] of 29.3, a No. of shocks [18] of 30.2 and a No. of shocks [19] of 16.1.

CC1CCCC(C)N1C(=O)c1cc2c(cn1)sc1ccccc12 (centres undefined) gave an Activity [2] of 4.5.

Cl.NCCCNC(=O)c1cc2c(cn1)sc1ccccc12 gave an Activity [1] of 37.7 and an Activity [2] of 15.2.

CCOC(=O)C1Cc2c(sc3ccccc23)CN1C(=O)c1ccccc1 (centres undefined) was tested, and the Activity [1] was 35.1 and the Activity [2] was 6.3.

In the case of CCCOC(=O)C1Cc2c(sc3ccccc23)CN1 (centres undefined), the Activity [1] is reported as 57.2 and the Activity [2] is reported as 14.5.

Work on CCCNC(=O)c1cc2c(cn1)sc1ccccc12 yielded an Activity [1] of 42 and an Activity [2] of 17.3.

Compound CCOC(=O)C1Cc2c(sc3ccccc23)CN1C(C)=O (centres undefined) has an Activity [1] of 37.3.

CCNC(=O)c1cc2c(cn1)sc1ccccc12 showed an Activity [1] of 36.3 and an Activity [2] of 8.5.

COC(=O)CCCNC(=O)c1cc2c(cn1)sc1ccccc12 gave an Activity [2] of 9.9.

For CCCCCCNC(=O)c1cc2c(cn1)sc1ccccc12, the Activity [1] was 62.3 and the Activity [2] was 10.5.

O=C(NC1CCCCC1)C1Cc2c(sc3ccccc23)CN1 (centres undefined) gave a Ki [20] of 0.28 µM, an IC50 [7] of 1600 µM and an Activity [8] of 85. For the same compound, the Activity [9] was 67.5, the Activity [1] was 120.4 and the Antiamnesic activity [21] was 1. It also gave an Antiamnesic activity [22] of 3, an Activity [2] of 36.9 and an Anticonflict activity [23] of 5. It also gave an Anticonflict activity [24] of 6, an Anticonflict activity [16] of 3 and a No. of shocks [17] of 28.1. It also gave a No. of shocks [18] of 26.9 and a No. of shocks [19] of 15.5.

Compound O=C(c1cc2c(cn1)sc1ccccc12)N1CCOCC1 has an Activity [1] of 52.9 and an Activity [2] of 8.2.

Compound Cl.NCCCC(=O)N1CCCN(C(=O)c2cc3c(cn2)sc2ccccc23)CC1 has an Activity [1] of 51.9.

CC1CN(C(=O)c2cc3c(cn2)sc2ccccc23)CCN1.Cl (centres undefined) was tested, and the Activity [1] was 40.3 and the Activity [2] was 7.6.

With NC(=O)c1cc2c(cn1)sc1ccccc12 the IC50 [7] was 1560 µM, the Activity [1] was 24.7 and the Activity [2] was 17.

CCOC(=O)c1cc2c(cn1)sc1ccccc12 gave an Activity [1] of 11.3 and an Activity [2] of 10.7.

COC(=O)C1Cc2c(sc3ccccc23)CN1 (centres undefined) was tested, and the Activity [25] was 64.5 and the Activity [2] was 17.9.

NNC(=O)c1cc2c(cn1)sc1ccccc12 showed an Activity [1] of 20.4 and an Activity [2] of 11.2.

For CCCOC(=O)c1cc2c(cn1)sc1ccccc12, the IC50 [7] was 1530 µM, the Activity [1] was 22.1 and the Activity [2] was 9.6.

With Cl.NCCNC(=O)c1cc2c(cn1)sc1ccccc12 the Activity [26] was 106.7, the Activity [27] was 125.1 and the Activity [9] was 65.5. It also gave an Activity [1] of 103.9, an Antiamnesic activity [28] of 4 and an Antiamnesic activity [29] of 6. It also gave an Antiamnesic activity [30] of 4, an Activity [2] of 37.2 and an Anticonflict activity [31] of 2. The Anticonflict activity [32] was 4, the No. of shocks [33] was 9.3 and the No. of shocks [34] was 22.

Work on Cl.O=C(c1cc2c(cn1)sc1ccccc12)N1CCCNCC1 yielded an Activity [1] of 38.9 and an Activity [2] of 21.8.

Cl.O=C(c1cc2c(cn1)sc1ccccc12)N1CCNCC1 was tested, and the Activity [1] was 40.7 and the Activity [2] was 17.8.

In the case of CN(C)CCNC(=O)c1cc2c(cn1)sc1ccccc12.Cl, the Activity [1] is reported as 64.5 and the Activity [2] is reported as 9.6.

CCOC(=O)C1Cc2c(sc3ccccc23)CN1C(=O)c1ccccc1Cl (centres undefined) gave an Activity [1] of 28.1 and an Activity [2] of 2.5.

CN1CCN(C(=O)c2cc3c(cn2)sc2ccccc23)CC1.Cl gave an Activity [1] of 44.2 and an Activity [2] of 3.3.

For O=C(c1cc2c(cn1)sc1ccccc12)N1CCCCC1, the Activity [1] was 60.2 and the Activity [2] was 5.

Source: ChEMBL document CHEMBL1125017, “Potent anticonflict activity and lessening of memory impairment with a series of novel [1]benzothieno[2,3-c]pyridines and 1,2,3,4-tetrahydro[1]benzothieno[2,3-c]pyridines” (J Med Chem, 1990)
